Where “and” joins values, the source holds several entries; their conditions need not be identical. Equal entries are not always repeated. Where a SMILES comes first, the peptide text is derived from it.
Assays:
[1] = system: hepatocytes; test: proliferation rate of hepatocytes in rats after 66% partial hepatectomy (3H-thymidine, specific radioactivity of DNA); format: in vivo, rat
Excerpt: To carry out these experiments, young female Wistar rats weighing 100 g were used, which had been provided from the SPF animal house department of the Max-Planck-Instut fur Biochemie in D-82152 Martinstied.
Seven groups of rats were subjected to 66% partial hepatectomy. In each experimental group 4 animals were used. In a slight modification of the Higgins and Anderson method (Higgins, G. M., Anderson, R. M., Archives of Pathology 12 (1931), p. 186-202), the rats were submitted to partial hepatectomy between 13.00 h and 13.30 h. The tetrapeptide SDKP synthesized in the conventional way and dissolved in 1 ml of 0.9% NaCl was injected intraperitoneally (i.p.) to three groups immediately after operation and to three other groups 10 hrs after the operation, each three with different quantities (500 μg, 1 μg). The seventh group served as a control group, receiving the solvent only. […] The livers were conserved at -20° C. up to the time of determining the specific radioactivity of the DNA in the hepatocyte nuclei.
This specific radioactivity was used as a marker for the proliferation behaviour of the hepatocytes: Thymidine is incorporated only in DNA (not e.g. in RNA), and significant DNA synthesis is effected only during cell proliferation. The specific radioactivity of the DNA (in dpm/μg DNA) is the quotient of the result of radioactivity measurement of a sample (in dpm, i.e. disintegrations per minute) by the DNA content of that sample (in μg). The proliferation promoting or proliferation inhibiting character of the peptide (depending on the administered dose and the time of administration after partial hepatectomy) was determined by establishing the percentage of the specific radioactivity of the DNA in the hepatocyte nuclei of the experimental group as compared with the specific radioactivity of the control group associated with each experiment.
For determination of the specific radioactivity, the DNA was first extracted from the liver. […]
For measurement of the radioactivity, scintillation counting liquid was added to 1 ml of the extract, and ^3 H measurement was effected. […]

[2] = system: YOSHIDA liver tumor cell ascites AH 130; test: development of the YOSHIDA ascites AH 130 in rat; format: in vivo
Protocol: Two groups, each comprising five female Wistar rats weighing approx. 100 grams, were inoculated with the YOSHIDA liver tumor cell ascites AH 130 of a rat having been infected 8 days ago. 0.5 ml of ascites fluid were injected intraperitoneally (i.p.) to each animal. Starting on the seventh day after ascites inoculation, 1 μg of SDK (dissolved in 1 ml of 0.9% NaCl solution) was injected i.p. to each animal of one group (five rats) during four days. Then the animals of both groups were killed. The following parameters were determined:
(a) Weight or respectively volume of ascites fluid. The killed rats were weighed, the ascites was sucked off as completely as possible, and the animals were weighed again. The difference resulting from these two ponderations corresponded to the ascites volume (1 g ≈1 ml).
(b) Number of tumor cells in the ascites 2 ml of the sucked-off ascites for each animal were placed into an EDTA tube, to prevent cells from agglomerating. With an aliquot thereof, the number of tumor cells was measured in a Coulter counter and extrapolated for the total volume.
The third and fourth columns give the respective results of twin measurements.

[3] = system: Hep G2 cells; test: human tumor cells in tissue culture (cell growth, 3H-thymidine incorporation); format: cell-based
Protocol: The effect of the tripeptide on human tumor cells was tested in an in-vitro model. For this purpose, Hep G2 cells were used. This cell line is a human hepatom from the tumor cell bank of "Deutsches Krebsforschungszentrum Heidelberg ", which is cultivated as a monolayer in 90% DMEM (Dulbecco's modified Eagle's medium)/10% FKS (fetal calf serum) in a subculture interval of three to five days. Sixty dishes of each of the experimental and control cultures were used. A solution of 20 mg of SDK in 0.2 ml of 0.9% NaCl served as a stock solution which was diluted with a physiological sodium chloride solution as required for each case.
One day after transferring the cells, 0.2 ml of tripeptide SDK dissolved in 0.9% NaCl (concentration: 1 μg/ml) were added to each 10 ml of culture medium. The control dishes received 0.2 ml of solvent.
This test was repeated, this time adding 0.5 ng, 1.0 ng, 2.0 ng and 4.0 ng of SDK in 0.9% NaCl per 1 ml of culture medium. The control dishes again received the corresponding quantity of solvent. Moreover, 0.05 mCi 6-^3 H-thymidine were added to the cultures […] prior to expiration of the observation period, followed by incubation for 1 hour. The DNA of the cells was isolated as described under item (1.), and the radioactivity was measured- The results are listed in the following chart.

[4] = system: hepatitis B viruses; test: synthesis of hepatitis B viruses in transfected Hep G2 cells (HBSAG/HBEAG radioimmunoassay); format: cell-based; settings: for Ratio of mean values in cpm before/after treatment, HBEAG / Ratio of mean values in cpm before/after treatment, HBSAG: six days
Excerpt: Hepatitis B viruses can be cultivated in Hep G2 cells. For this purpose, a recombining plasmide containing the complete virus DNA is channelled into the cells. Starting from this, the synthesizing mechanism of the cells transfected in this way will produce hepatitis B viruses (cf. Chungming Chang et al., EMBO J. 6, p. 675-680, 1987) The virus synthesis manifests itself by secreting large quantities of two surface antigens of that virus (HBSAG and HBEAG). The antigens can be detected by means of a radioimmunoassay (RIA). In this determination, an unknown quantity of antigen (HBSAG and HBEAG) competes with a known quantity of radioactively marked antigen for a limited number of antibody binding positions in a predetermined quantity of the antiserum. In the state of equilibrium, the surplus antigen exists in both the bound and the free dissolved conditions. Now, if the quantity of radioactively marked antigen is constant in a series of reactions, the proportion bound to the antibody will decrease in accordance with an increasing quantity of unmarked antigen added to the individual samples.
For practical execution of this process, a calibration curve is established first, using known quantities of marked and unmarked antigen, which will then permit determination of the unknown quantity of antigen. After incubation, the free antigen is separated from the bound antigen, and the two fractions are measured separately.
A Hep-G2 cell culture was steadily transfected with hepatitis B viruses as described by SELLS et al., Proc. Natl. Acad. Sci. USA 1987, 84, p. 1005-1009. The transfected cells were sowed in ten 4.5 cm dishes at a density of 8×10^5 cells, and in four 9 cm dishes at a density of 1.6×10^6 cells respectively. After 24 hours, fresh medium was added, containing the tripeptide SDK at concencentrations of 0.5 ng/ml, 1.0 ng/ml, 3.0 ng/ml and 5 ng/ml for each two 4.9 cm dishes, or 1.0 ng/ml for each two 9 cm dishes respectively. The tripeptide had been prediluted in completed DMEM ([…]) and sterilized by filtration. The remaining dishes served as a control, receiving the pure medium. The old medium was conserved in the supernatant for measurement of antigens, in order to exclude artifacts due to possible heterogeneities of cell density. The samples of medium for measurement of antigens were taken after six days. Measurement was effected using a standard RIA kit (HBSAG Ansria II/125, type 7802, and HBEAG Abbott Hbe (rDNA), type 1237/24, both from Abbott, Wiesbaden), according to instructions for use. The experiments were conducted with twin samples (two dishes each), since the cells from one dish were not enough.

[5] = system: human T-cells; settings: cited from earlier work
[6] = system: IgM secreting B-lymphocytes; settings: mice; cited from earlier work
[7] = 0.5 ng of SDK per ml of medium, 4.5 cm dishes
[8] = 1.0 ng of SDK per ml of medium, 4.5 cm dishes
[9] = 1.0 ng of SDK per ml of medium, 9.0 cm dishes
[10] = 3.0 ng of SDK per ml of medium, 4.5 cm dishes
[11] = 5.0 ng of SDK per ml of medium, 4.5 cm dishes

NCCCC[C@H](NC(=O)[C@H](CC(=O)O)NC(=O)[C@@H](N)CO)C(=O)O [SDK, Ser-Asp-Lys] (H-Ser-Asp-Lys-OH)
effect on hepatocyte proliferation ([1]; 1 μg injected after a certain time interval (1 h, 3, 6, 10 hrs after operation)): inhibiting effect
effect on hepatocyte proliferation ([1]; 1 μg injected immediately after operation): slightly proliferation promoting effect
decrease in proliferation ([1]; 1 μg injected ten hours after operation): about fifty
average number of tumor cells as % of the number found in control animals ([2]; 1 μg SDK/animal i.p. during four days): 19.1%
Ascites ([2]; 1 μg SDK/animal i.p. during four days from seventh day after ascites inoculation): 5.1 mL and 5.2 mL and 4.3 mL and 5.7 mL
quantity of ascites ([2]; 1 μg SDK/animal vs control): drastic decrease
total number of tumor cells ([2]; 1 μg SDK/animal vs control): drastic decrease
Cell number total, mean value + standard deviation ([2]; 1 μg SDK/animal, five rats): 147.7 ± 70.1 × 10^6
Inhibition of proliferation in % ([3]; 0.5 ng of SDK per ml of medium): 19.3%
Inhibition of proliferation in % ([3]; 1.0 ng of SDK per ml of medium): 44.9%
Inhibition of proliferation in % ([3]; 2.0 ng of SDK per ml of medium): 34.0%
Inhibition of proliferation in % ([3]; 4.0 ng of SDK per ml of medium): 12.4%
concentration of maximum proliferation inhibiting effect ([3]; Hep G2, per ml of culture medium): 1 ng/mL
Ratio of mean values in cpm before/after treatment, HBEAG [4, 7]: 6.10
Ratio of mean values in cpm before/after treatment, HBSAG [4, 7]: 4.47
Ratio of mean values in cpm before/after treatment, HBEAG [4, 8]: 6.22
Ratio of mean values in cpm before/after treatment, HBSAG [4, 8]: 4.18
Ratio of mean values in cpm before/after treatment, HBEAG [4, 9]: 6.59
Ratio of mean values in cpm before/after treatment, HBSAG [4, 9]: 3.89
Ratio of mean values in cpm before/after treatment, HBEAG [4, 10]: 7.31
Ratio of mean values in cpm before/after treatment, HBSAG [4, 10]: 4.57
Ratio of mean values in cpm before/after treatment, HBEAG [4, 11]: 8.00
Ratio of mean values in cpm before/after treatment, HBSAG [4, 11]: 4.18
concentration of antigens, and hence the virus synthesis ([4]; transfected Hep G2 cells, SDK vs untreated): significantly reduced
rosette formation due to interaction of human T-cells and sheep erythrocytes [5]: inhibits rosette formation
immunomodulating effect: humoral response (generation of IgM secreting B-lymphocytes) to red blood cells of sheep [6]: stimulation of the humoral response

Reference: patent publication US5589461A, “Active substance for inhibiting the proliferation rate of hepatocytes” (priority 1994, dated 1996)
